Source: ChEMBL document CHEMBL1201862, “PubChem BioAssay data set” (2004)
Active and inactive are the calls of the source.

How the values were obtained:
[1] = biological target: DNA dC->dU-editing enzyme APOBEC-3G (Homo sapiens, UniProt Q9HC16); assay type: functional;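 also: Dose-response counterscreen measuring inhibition of APOBEC3G DNA deaminase activity, run while confirming APOBEC3A inhibitors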
cells [2] = assay type: functional, cell-based; conditions: HEK-CNG
[3] = biological target: DNA dC->dU-editing enzyme APOBEC-3A (Homo sapiens, UniProt P31941); assay: Dose Response confirmation of small molecule APOBEC3A DNA Deaminase Inhibitors via a fluorescence-based single-stranded DNA deaminase assay. [Related pubchem assays (depositor defined):AID493011, AID493024]; assay type: functional
Galanin receptor type 3 = Galanin receptor type 3 (Homo sapiens, UniProt O60755); assay: Fluorescence-based cell-based primary high throughput dose response assay to identify antagonists of the Galanin Receptor 3 (GalR3).; assay type: functional
[4] = inhibitors of intracellular T. cruzi replication, confirmation, NIH3T3 host cells, beta-gal luminescence (AID 2044); assay type: functional, cell-based;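 also: intracellular parasites grown in NIH/3T3 mouse fibroblasts as host cells; luminescent beta-galactosidase reporter signal from transgenic T. cruzi replicating inside host cells; inhibitors lower the luminescence signal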
[5] = cytotoxicity toward NIH3T3 fibroblasts, dose response, counter-screen, cell-based, ATP luminescence, mouse fibroblasts (AID 2010); assay type: functional;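 also: cells exposed to compound for about 90 hours before reading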
[6] = biological target: T1, DNA repair protein RAD52 homolog (Homo sapiens, UniProt P43351); assay type: functional, biochemical
T1 sequence (P43351 whole entry): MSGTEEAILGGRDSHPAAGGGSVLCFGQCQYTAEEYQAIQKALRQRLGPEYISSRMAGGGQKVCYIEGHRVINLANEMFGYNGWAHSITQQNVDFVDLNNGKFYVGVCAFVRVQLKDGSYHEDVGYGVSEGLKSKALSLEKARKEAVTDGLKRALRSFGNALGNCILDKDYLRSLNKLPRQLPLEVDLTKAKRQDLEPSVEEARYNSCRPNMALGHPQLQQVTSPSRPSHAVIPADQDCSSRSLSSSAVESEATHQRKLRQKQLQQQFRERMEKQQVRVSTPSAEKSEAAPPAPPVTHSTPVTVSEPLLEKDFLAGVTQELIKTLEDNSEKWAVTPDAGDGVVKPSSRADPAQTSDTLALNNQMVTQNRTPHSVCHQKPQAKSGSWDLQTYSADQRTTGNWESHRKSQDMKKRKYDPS

[7] = biological target: FAD-linked sulfhydryl oxidase ALR (Homo sapiens, UniProt P55789); assay: inhibitors of human ALR sulfhydryl oxidase, dose response, biochemical, H2O2 detection, luminescence, cherry-pick (AID 493248)
[8] = biological target: Histone-lysine N-methyltransferase NSD2 (Homo sapiens, UniProt O96028); assay type: biochemical
[9] = LGR2 antagonists, dose response, cell-based, HEK293, CRE-luciferase reporter, cherry pick, set 2 (AID 743343); assay type: functional;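 also: transfected cells were stimulated with diluted bursicon conditioned medium after compound addition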
[10] = biological target: Peroxisome proliferator-activated receptor gamma/Nuclear receptor coactivator 3 (Homo sapiens, UniProt P37231); assay: TR-FRET dose response biochemical High Throughput Screening assay for agonists of the steroid receptor coactivator 3 (SRC-3) recruitment by the peroxisome proliferator-activated receptor gamma (PPAR gamma): non-selective agonists. [Related pubchem assays: 1301 (Confirmation screen.), 1048 (Primary screen.)]; assay type: functional
[11] = MC4R antagonists, dose response, counter-screen for LGR2 antagonist project, cell-based, plate reader, cherry pick (AID 743444); assay type: functional;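 also: transfected HEK 293 cells stimulated with alpha-MSH peptide; potency of inhibitors of the alpha-MSH evoked signal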
[12] = biological target: Peroxisome proliferator-activated receptor gamma/Nuclear receptor coactivator 2 (Homo sapiens, UniProt P37231); assay: (§1) TR-FRET dose response biochemical High Throughput Screening assay for agonists of the steroid receptor coactivator 2 (SRC-2) recruitment by the peroxisome proliferator-activated receptor gamma (PPAR gamma): non-selective agonists. [Related pubchem assays: 1297, 1032 ]; assay type: functional
[13] = biological target: Peroxisome proliferator-activated receptor gamma/Nuclear receptor coactivator 1 (Homo sapiens, UniProt P37231); assay: as §1, with “1 (SRC-1)” for “2 (SRC-2)”, “assays (depositor defined):AID1300, AID1808, AID504735, AID631]” for “assays: 1297, 1032 ]”; assay type: protein assay
[14] = CEM21 lymphoblast cell cytotoxicity, dose response, cytotoxicity control for viral fusion inhibitor project, CellTiter-Glo luminescence, cherry-picked (AID 652042); assay type: functional, cell-based;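 also: potency for signal decrease meaning cytotoxicity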
[15] = inhibitors of HIV Env-driven cell fusion, dose response, cherry-pick (AID 652057); assay type: functional, cell-based
Large T antigen = Large T antigen (Simian virus 40, UniProt P03070); assay type: functional, Betapolyomavirus macacae;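 also: Confirmatory-stage PubChem screen for compounds that inhibit SV40 T antigen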
[16] = biological target: Nuclear receptor subfamily 5 group A member 2 (Homo sapiens, UniProt O00482); assay type: functional, cell-based;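 also: HEK293T cells transfected with LRH-1 and a StAR promoter luciferase reporter; potency for inhibitors that lower LRH-1 driven reporter light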
[17] = biological target: T2, Heat shock factor protein 1 (Mus musculus, UniProt P38532); assay: inhibition of MG132-induced HSE-luciferase signal, confirmation, cell-based, NIH3T3, luminescence, dose retest (AID 2382); assay type: functional;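 also: NIH3T3 fibroblasts with HSF1-driven luciferase reporter stressed by proteasome inhibitor MG132; luminescence from HSF1-driven luciferase expression after 8 hours of MG132 stress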
T2 sequence (P38532 whole entry): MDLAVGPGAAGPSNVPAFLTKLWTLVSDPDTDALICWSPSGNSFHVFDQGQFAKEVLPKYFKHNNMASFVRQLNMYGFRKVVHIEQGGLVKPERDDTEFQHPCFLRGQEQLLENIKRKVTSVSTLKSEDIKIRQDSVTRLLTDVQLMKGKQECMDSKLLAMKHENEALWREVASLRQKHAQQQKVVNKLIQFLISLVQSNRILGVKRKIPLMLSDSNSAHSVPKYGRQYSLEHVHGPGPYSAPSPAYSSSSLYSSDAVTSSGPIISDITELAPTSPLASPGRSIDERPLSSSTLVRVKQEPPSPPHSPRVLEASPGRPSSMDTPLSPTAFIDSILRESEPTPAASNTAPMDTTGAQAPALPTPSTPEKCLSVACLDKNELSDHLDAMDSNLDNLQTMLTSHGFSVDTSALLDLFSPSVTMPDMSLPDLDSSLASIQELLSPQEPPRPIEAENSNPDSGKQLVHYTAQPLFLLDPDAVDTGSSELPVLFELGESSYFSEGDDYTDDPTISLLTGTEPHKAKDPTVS

Steroidogenic factor 1 = Steroidogenic factor 1 (Homo sapiens, UniProt Q13285); assay: Counterscreen for inverse agonists of the liver receptor homolog-1 (LRH-1; NR5A2): Luminescence-based cell-based high throughput dose response assay to identify inverse agonists of the Steroidogenic Factor 1 Nuclear Receptor (SF1; NR5A1).; assay type: functional
[18] = StAR promoter reporter inhibition counter-screen, dose response, counter-screen for LRH-1 inverse agonist project, cell-based, luminescence, luciferase reporter (AID 651969); assay type: functional
cells [19] = assay type: functional, cell-based
[20] = inhibitors of firefly luciferase expression or activity, dose response, H4 neuroglioma cells, luminescence (AID 1990); assay type: functional, cell-based
[21] = inhibitors of SNCA 5'UTR-driven reporter translation, confirmation, H4 neuroglioma cells, luminescence (AID 1988); assay type: functional, cell-based
[22] = Luminescence Cell-Based Dose Response HTS to Identify Inhibitors of 5'UTR Stem-Loop Driven Prion Protein mRNA Translation in H4 Neuroglioblastoma Cells. [Related pubchem assays: 1827 (Project Summary), 1813 (Primary HTS)]; assay type: functional
Vero = assay: cells; assay type: functional, cell-based; conditions: Chlorocebus sabaeus
[23] = biological target: T3, Nuclear receptor subfamily 0 group B member 1 (Homo sapiens, UniProt P51843); assay type: functional, cell-based;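 also: HEK293T cells transfected with SF-1 and DAX-1 plus StAR promoter luciferase reporter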
T3 sequence (P51843 whole entry): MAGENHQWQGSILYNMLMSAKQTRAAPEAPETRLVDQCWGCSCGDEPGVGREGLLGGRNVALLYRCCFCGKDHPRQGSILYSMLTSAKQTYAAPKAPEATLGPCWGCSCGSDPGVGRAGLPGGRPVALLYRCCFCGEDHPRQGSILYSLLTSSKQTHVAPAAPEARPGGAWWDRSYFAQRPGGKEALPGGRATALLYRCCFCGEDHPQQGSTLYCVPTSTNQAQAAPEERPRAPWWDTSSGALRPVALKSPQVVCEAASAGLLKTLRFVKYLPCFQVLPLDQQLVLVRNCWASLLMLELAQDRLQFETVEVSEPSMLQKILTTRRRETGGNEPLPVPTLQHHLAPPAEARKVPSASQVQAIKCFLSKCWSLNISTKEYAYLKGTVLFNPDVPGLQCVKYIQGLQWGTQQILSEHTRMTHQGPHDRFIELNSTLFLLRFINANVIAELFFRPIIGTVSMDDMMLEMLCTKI

cells [24] = assay: cells
[25] = HEp-2 cell cytotoxicity, dose response, cytotoxicity control for RSV inhibitor project, HTS (AID 2410); assay type: functional; conditions: human respiratory syncytial virus
[26] = biological target: T4, Carboxy-terminal domain RNA polymerase II polypeptide A small phosphatase 1 (Homo sapiens, UniProt Q9GZU7); assay: inhibitors of CTDSP1, concentration-response testing, biochemical assay, absorbance-based, actives from ultra-high-throughput screening (AID 540297); assay type: functional
T4 sequence (Q9GZU7 whole entry): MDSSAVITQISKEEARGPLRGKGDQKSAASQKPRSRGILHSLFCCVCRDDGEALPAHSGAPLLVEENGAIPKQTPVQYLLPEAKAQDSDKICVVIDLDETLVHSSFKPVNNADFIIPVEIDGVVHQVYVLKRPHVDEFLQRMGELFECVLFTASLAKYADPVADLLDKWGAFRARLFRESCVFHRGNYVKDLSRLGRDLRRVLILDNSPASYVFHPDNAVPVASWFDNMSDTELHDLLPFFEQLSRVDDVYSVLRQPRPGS

[27] = biological target: T5, Low molecular weight phosphotyrosine protein phosphatase (Homo sapiens, UniProt P24666); assay type: functional; conditions: read-out: IC50_Mean
T5 sequence (P24666 whole entry): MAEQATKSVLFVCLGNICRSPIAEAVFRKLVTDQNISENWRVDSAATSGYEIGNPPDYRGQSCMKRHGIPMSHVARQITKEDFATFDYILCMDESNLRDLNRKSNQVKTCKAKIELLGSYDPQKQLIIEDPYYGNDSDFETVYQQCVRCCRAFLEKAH

[28] = biological target: T5, Low molecular weight phosphotyrosine protein phosphatase; assay type: functional; conditions: read-out: IC50_Mean; remark: listed apart in the source

Sequence of FAD-linked sulfhydryl oxidase ALR (P55789 whole entry): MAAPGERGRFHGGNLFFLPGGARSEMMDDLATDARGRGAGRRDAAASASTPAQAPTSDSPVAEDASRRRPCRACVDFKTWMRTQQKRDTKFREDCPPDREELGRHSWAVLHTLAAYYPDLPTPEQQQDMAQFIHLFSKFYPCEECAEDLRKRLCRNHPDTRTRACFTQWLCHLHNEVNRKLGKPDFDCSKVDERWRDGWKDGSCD
Sequence of Histone-lysine N-methyltransferase NSD2 (O96028 whole entry): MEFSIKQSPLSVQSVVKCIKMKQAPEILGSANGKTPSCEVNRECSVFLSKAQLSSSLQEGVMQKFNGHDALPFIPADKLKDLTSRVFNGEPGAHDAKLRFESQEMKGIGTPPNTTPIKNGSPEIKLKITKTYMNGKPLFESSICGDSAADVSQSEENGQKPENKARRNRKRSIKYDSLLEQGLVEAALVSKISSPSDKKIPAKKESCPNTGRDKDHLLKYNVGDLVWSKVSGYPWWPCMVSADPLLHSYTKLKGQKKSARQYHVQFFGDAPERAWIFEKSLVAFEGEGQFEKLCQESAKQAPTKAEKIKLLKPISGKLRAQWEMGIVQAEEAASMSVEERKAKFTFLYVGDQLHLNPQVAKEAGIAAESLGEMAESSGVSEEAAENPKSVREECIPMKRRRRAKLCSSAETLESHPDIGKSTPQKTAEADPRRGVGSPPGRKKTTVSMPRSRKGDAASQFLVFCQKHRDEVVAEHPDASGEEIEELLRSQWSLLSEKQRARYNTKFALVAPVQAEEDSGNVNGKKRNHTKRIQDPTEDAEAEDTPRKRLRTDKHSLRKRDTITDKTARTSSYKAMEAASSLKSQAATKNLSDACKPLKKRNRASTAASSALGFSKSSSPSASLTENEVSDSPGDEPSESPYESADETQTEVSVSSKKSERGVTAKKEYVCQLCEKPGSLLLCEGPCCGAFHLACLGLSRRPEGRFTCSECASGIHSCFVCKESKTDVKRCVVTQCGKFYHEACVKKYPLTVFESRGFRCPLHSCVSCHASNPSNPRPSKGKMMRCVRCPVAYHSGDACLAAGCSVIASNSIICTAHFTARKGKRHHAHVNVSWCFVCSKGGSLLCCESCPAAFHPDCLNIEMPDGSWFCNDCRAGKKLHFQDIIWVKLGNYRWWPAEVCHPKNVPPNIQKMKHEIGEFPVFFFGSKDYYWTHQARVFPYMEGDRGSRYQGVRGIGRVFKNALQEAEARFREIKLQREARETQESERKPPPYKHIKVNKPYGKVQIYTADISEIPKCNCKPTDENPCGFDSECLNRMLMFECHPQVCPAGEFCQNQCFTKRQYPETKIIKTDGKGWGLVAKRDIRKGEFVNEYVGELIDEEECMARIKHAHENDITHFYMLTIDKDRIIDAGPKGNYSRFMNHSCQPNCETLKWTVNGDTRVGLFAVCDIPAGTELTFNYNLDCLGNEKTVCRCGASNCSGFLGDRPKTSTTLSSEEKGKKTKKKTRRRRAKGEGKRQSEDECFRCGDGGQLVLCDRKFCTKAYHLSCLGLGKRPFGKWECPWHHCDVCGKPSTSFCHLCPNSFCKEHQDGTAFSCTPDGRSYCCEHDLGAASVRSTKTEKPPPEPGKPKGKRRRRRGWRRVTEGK
Sequence of Galanin receptor type 3 (O60755 whole entry): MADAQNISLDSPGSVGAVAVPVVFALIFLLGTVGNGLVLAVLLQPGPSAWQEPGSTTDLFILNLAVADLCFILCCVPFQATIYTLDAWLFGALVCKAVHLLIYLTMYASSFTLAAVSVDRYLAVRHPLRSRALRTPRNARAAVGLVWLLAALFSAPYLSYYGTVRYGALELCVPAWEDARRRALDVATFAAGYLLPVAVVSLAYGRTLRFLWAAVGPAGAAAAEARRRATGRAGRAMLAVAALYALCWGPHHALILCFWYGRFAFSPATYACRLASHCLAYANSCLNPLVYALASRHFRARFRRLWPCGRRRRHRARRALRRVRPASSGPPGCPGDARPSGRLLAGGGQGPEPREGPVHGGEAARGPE
Sequence of DNA dC->dU-editing enzyme APOBEC-3G (Q9HC16 whole entry): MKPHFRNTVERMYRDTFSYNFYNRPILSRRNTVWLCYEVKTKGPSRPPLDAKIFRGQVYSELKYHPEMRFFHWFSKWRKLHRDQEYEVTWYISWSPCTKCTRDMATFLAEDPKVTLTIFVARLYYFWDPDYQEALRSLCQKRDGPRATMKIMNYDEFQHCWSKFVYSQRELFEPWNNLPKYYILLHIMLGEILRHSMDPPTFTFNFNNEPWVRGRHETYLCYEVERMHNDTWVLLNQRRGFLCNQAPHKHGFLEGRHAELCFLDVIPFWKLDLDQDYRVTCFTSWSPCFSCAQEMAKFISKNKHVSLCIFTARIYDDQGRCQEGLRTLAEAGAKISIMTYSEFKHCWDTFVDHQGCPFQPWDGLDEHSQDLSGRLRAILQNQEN
Sequence of Steroidogenic factor 1 (Q13285 whole entry): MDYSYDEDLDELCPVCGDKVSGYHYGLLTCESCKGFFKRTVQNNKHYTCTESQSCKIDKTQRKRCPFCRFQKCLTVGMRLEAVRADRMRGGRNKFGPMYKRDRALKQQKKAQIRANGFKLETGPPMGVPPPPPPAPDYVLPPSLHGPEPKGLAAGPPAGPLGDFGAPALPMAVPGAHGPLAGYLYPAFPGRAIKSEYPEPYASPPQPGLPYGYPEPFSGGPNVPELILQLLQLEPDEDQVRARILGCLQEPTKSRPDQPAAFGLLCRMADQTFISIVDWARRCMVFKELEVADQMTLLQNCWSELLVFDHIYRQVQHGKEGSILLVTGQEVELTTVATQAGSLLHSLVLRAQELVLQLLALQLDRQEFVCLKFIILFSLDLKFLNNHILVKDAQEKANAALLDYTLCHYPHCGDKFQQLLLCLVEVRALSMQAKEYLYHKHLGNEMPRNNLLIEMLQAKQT
Sequence of Peroxisome proliferator-activated receptor gamma/Nuclear receptor coactivator 2 (P37231 whole entry): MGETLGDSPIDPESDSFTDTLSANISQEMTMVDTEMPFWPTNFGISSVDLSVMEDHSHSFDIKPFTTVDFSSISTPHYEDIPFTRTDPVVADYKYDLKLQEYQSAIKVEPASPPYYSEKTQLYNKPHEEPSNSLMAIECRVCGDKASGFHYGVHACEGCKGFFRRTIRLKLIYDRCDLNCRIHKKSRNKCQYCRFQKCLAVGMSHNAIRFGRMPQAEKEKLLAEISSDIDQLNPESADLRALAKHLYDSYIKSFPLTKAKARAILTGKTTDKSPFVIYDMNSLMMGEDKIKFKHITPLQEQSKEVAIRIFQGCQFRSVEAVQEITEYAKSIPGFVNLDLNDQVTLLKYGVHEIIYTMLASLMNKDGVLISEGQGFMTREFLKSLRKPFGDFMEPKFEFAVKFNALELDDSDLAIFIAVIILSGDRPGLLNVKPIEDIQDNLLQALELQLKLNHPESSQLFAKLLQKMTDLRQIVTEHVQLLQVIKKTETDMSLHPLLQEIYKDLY
Sequence of Peroxisome proliferator-activated receptor gamma/Nuclear receptor coactivator 2 (Q15596 whole entry, further chain): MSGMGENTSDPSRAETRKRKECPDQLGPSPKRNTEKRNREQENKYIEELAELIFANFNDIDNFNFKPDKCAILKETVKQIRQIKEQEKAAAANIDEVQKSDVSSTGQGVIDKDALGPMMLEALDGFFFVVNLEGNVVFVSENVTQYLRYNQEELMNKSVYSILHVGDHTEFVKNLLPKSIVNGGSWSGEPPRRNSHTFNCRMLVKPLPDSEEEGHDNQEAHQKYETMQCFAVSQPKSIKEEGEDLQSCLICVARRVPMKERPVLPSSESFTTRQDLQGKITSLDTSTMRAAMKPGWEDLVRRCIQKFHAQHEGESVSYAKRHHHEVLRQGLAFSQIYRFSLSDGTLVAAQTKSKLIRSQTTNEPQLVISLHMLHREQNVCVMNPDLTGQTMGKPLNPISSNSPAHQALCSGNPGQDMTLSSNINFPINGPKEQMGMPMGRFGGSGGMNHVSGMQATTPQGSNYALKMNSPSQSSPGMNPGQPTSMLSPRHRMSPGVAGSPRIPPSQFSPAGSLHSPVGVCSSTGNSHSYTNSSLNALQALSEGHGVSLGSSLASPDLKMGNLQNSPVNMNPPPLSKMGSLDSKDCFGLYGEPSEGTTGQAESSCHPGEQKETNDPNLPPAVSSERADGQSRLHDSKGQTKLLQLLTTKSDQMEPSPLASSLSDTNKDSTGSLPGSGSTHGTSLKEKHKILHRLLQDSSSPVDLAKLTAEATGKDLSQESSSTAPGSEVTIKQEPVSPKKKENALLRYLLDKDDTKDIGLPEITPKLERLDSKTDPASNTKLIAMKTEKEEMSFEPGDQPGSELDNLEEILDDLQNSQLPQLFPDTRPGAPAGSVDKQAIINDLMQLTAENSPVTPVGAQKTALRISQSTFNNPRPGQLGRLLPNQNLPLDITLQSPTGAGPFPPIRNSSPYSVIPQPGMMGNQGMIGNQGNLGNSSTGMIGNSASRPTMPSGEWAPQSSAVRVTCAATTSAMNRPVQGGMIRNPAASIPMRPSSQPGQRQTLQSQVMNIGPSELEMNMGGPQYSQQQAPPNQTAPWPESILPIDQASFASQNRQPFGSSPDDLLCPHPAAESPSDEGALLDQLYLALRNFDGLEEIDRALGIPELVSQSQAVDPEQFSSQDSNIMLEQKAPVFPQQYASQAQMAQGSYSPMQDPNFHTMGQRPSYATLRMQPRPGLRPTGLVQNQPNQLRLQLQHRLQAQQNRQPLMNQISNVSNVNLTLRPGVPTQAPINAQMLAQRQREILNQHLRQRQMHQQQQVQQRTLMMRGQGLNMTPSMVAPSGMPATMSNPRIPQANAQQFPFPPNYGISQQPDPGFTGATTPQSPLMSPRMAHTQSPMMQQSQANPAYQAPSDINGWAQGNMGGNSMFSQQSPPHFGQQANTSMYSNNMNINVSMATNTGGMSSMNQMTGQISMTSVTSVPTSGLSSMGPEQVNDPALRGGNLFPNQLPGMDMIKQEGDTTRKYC
Sequence of DNA dC->dU-editing enzyme APOBEC-3A (P31941 whole entry): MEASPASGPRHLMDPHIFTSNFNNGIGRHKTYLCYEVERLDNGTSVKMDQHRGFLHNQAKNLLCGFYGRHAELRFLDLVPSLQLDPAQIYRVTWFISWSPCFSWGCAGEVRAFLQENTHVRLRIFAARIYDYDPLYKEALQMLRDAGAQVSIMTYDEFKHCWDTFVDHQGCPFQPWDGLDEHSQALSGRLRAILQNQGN

Structure (SMILES): CC1(C)CC(N2CCCCC2)=CC(=[N+]2CCCCC2)C1
- IC50 [1]: 4.57 µM (active)
- EC50 (cells [2]): > 29.9 µM (inactive)
- IC50 [3]: 2.2 µM (active)
- IC50 (Galanin receptor type 3): 3.67 µM (active)
- EC50 [4]: 0.369 µM (active)
- EC50 [5]: 21.5 µM (active)

Structure (SMILES): CCN1CCN(c2ccc(N)cc2)CC1
- AC50 [6]: 1.47 µM (active)
- AC50 [7]: 4.5 µM (active)
- AC50 [8]: > 20 µM (inactive)

Structure (SMILES): Cc1ccccc1C(=O)Nc1nnc(-c2ccco2)s1
- AC50 [9]: 4.84 µM (active)
- EC50 [10]: > 79.4 µM (not active)
- AC50 [11]: 8.18 µM (active)
- EC50 [12]: > 26.5 µM (not active)
- EC50 [13]: > 79.4 µM (inactive)

Structure (SMILES): COCCCNC(=O)c1sc2ncnc(N3CCc4ccccc4C3)c2c1C
- AC50 [14]: 6.66 µM (active)
- AC50 [15]: 3.98 µM (active)

Structure (SMILES): CCN1CCN(c2ccc(N)cc2C)CC1
- AC50 [6]: 0.278 µM (active)
- AC50 [7]: 1.73 µM (active)
- AC50 [8]: > 20 µM (inactive)
- IC50 (Large T antigen): 6.6 µM (active)

Structure (SMILES): Cc1c(Cl)cccc1NC(=O)CS(=O)(=O)c1ccccc1
- IC50 [16]: 3.98 µM (active)
- EC50 [17]: > 195 µM (not active)
- IC50 (Steroidogenic factor 1): 9.39 µM (active)
- IC50 [18]: 35.8 µM (inactive)

Structure (SMILES): Nc1cnn(C2OC(CO)C(O)C2O)c(=O)n1 (configuration not stated)
- IC50 (cells [19]): > 67.5 µM (inactive)
- EC50 [20]: 14.3 µM (active)
- EC50 [21]: 14.7 µM (active)
- EC50 [22]: > 120 µM (not active)
- IC50 (Vero): 11.8 µM (active)
- IC50 [23]: > 22.5 µM (inactive)
- IC50 (cells [24]): 1.91 µM (active)
- CC50 [25]: 5.98 µM (active)

Structure (SMILES): Cc1cc(C(=O)NCCc2ccc(Cl)cc2)c(C)o1
- IC50 (cells [19]): > 67.5 µM (inactive)
- IC50 [23]: > 67.5 µM (inactive)

Structure (SMILES): CCc1ccc(NC(=O)C[S+]([O-])CC(=O)Nc2ccc(N3CCOCC3)cc2)cc1 (configuration not stated)
- IC50 [26]: 5.78 µM (active)
- IC50 [27]: 16.8 µM (active)
- IC50 [28]: 17.4 µM (active)
